Where two headings read alike, the source gives them in different places.
What was measured:
[1] = tested on: JAK kinases (JAK1 and JAK3); experiment: JAK inhibition: IL-4-stimulated CD23 upregulation in human Ramos B-cells, FACS; format: cell-based; conditions: IL-4 stimulated Ramos B-cells, read-out: IC50, inhibition of JAK kinases in cellular assay
Protocol: JAK inhibition was tested in human Ramos B-cells activated with IL-4. Twenty to 24 hours post stimulation, the cells are stained for upregulation of CD23 and analyzed by FACS. Stimulation of the B-cells with IL-4 leads to the activation of the JAK/STAT pathway through phosphorylation of the JAK kinase JAK1 and JAK3, which in turn phosphorylate and activate transcription of factor […].
For the assay, human Ramos B-cells (ATCC, Catalog No. CRL-1596) are cultured in RPMI 1640 medium (Cellgro, Catalog No. 10-040-CM) containing 10% fetal bovine serum (JRH, Catalog No. 12106-500M) according to the propagation protocol supplied with the cells, and maintained at a density of approximately 3.5×10^5 cells/ml. The day before the assay, the cells are diluted to 3.5×10^5 cells/ml to insure they are in the logarithmic growth phase. The cells are spun down, and suspended in RPMI 1640 medium containing 5% fetal bovine serum to a density of 3.5×10^4 cells/ml and aliquots dispensed into a 96-well tissue culture plate. Cells are incubated with test compound (dissolved in DMSO) or DMSO (control) for 1 hr at 37° C. and then stimulated with IL-4 (Pepotech, Catalog No. 200-04) for 20-24 hours (final concentration is 50 Units/ml). Cells are then spun down, stained with anti-CD23-PE antibody (BD Pharmigen, Catalog No. 555711) and analyzed by FACS.

Syk kinase = Syk kinase (Homo sapiens, UniProt P43405); experiment: cell-based Syk assay; conditions: read-out: IC50, inhibition of Syk kinase
Axl kinase = target: T1, Axl kinase (Homo sapiens, UniProt P30530); experiment: Phospho-Akt in-cell Western assay (Axl antibody cross-linking, Hela cells); format: cell-based; conditions: phospho-Akt readout, read-out: IC50, inhibition of Axl kinase
T1 construct: endogenous in cells; host or cells: HeLa cells
T1 sequence (P30530 26-894): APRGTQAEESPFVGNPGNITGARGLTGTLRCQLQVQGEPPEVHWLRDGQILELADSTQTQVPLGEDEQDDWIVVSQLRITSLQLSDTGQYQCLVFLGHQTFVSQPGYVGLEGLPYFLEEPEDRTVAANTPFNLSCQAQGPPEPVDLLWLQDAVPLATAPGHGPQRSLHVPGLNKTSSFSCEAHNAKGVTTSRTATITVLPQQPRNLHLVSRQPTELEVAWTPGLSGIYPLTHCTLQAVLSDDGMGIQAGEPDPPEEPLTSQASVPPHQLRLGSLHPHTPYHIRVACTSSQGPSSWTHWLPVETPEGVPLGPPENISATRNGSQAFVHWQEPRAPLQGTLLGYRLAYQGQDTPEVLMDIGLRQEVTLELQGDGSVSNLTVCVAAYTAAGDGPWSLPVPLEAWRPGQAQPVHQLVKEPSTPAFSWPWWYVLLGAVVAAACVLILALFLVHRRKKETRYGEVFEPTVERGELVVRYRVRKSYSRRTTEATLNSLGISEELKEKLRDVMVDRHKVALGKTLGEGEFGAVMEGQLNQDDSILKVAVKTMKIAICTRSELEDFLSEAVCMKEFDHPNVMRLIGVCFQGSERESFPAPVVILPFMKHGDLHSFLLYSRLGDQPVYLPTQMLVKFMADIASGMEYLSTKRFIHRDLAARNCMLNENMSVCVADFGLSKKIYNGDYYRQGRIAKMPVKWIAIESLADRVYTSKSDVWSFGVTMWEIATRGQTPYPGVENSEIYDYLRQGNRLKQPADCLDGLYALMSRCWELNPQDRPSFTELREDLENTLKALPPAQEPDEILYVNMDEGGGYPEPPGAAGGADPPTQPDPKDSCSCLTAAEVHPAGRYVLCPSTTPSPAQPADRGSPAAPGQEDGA
Protocol: The compounds of the invention were tested in the following assay for their ability to inhibit Axl activity.
Phospho-Akt in-Cell Western Assay
Starvation medium: For Axl stimulation: 0.5% FCS (fetal calf serum) in DMEM, plus Axl/Fc (extracellular domain of AXL fused to immunoglobulin Fc region) (R&D, 154-AL) 500 ng/mL.
Axl antibody cross-linking: • 1st: Mouse anti-Axl (R&D, MAB 154). • 2nd: Biotin-SP-conjugated AffiniPure goat anti-mouse IgG (H+L) (Jackson ImmunoResearch #115-065-003).
Primary antibody: Rabbit anti-human Phospho-Akt antibody (Cell Signaling 9271): 1×250 diluted in blocking buffer.
Secondary antibody: HRP (horse radish peroxidase)-conjugated Goat anti-Rabbit secondary, stock solution: Jackson lmmunoResearch (Goat anti-Rabbit HRP, #111-035-144) 1:1 diluted in glycerol, store at −20° C. The working solution: 1×2000 dilution of stock in blocking buffer.
A 96 well TC (tissue culture treated) plate was coated with 10 μg/mL poly-L-Lysine at 37° C. for 30 min, washed twice with PBS, and air-dried for 5 minutes before cells were added. Hela cells were seeded at 10,000 cells/well and the cells were starved in 100 μL starvation medium containing Axl/Fc for 24 hrs.
The cells were pre-treated with test compounds by adding 100 μL of 2× test compound to the starvation medium on the cells. The cells were incubated at 37° C. for 1 hr before stimulation.
The cells were stimulated by Axl-antibody cross-linking as follows: A 5× 1st/2nd Axl antibody mixture was made (37.5 μg/mL 1st/100 μg/mL 2nd) in starvation medium and nutated at 4° C. with thorough mixing for 1-2 hours for clustering. The resulting mix was warmed to 37° C. 50 μL of 5× Axl 1st/2nd of antibody cluster was added to the cells and the cells were incubated at 37° C. for 5 min.
After 5 minutes stimulation, the plate was flicked to remove medium and the plate was tapped onto paper towels. Formaldehyde (4.0% in PBS, 100 μL) was added to fix the cells and the cells were incubated at ambient temperature for 20 min without shaking.
The cells were washed with a plate washer buffer to remove the formaldehyde solution. The plate was flicked to remove excess wash buffer and tapped onto paper towels. Quenching buffer (100 μL) was added to each well and the cells were incubated at ambient temperature for 20 minutes without shaking.
The cells were washed with a plate washer buffer to remove the quenching buffer. Blocking buffer (100 μL) was added and the cells were incubated at ambient temperature for at least an hour with gentle shaking.
The cells were washed with a plate washer buffer and diluted primary antibody (50 μL) was added to each well (blocking buffer was added to the negative control wells instead). The plates were incubated overnight at 4° C. with gentle shaking.
The wash buffer was removed, diluted secondary antibody (100 μL) was added, and the cells were incubated at ambient temperature for 1 hour with gentle shaking. During the incubation, the chemiluminescent reagent was brought to ambient temperature.
The secondary antibody was removed by washing the cells 1× with wash buffer, 1× with PBS by plate washer. The PBS was removed from the plate and the chemiluminescent reagent (80 μL: 40 μL A and 40 μL B) was added to each well at ambient temperature.
The resulting chemiluminescence was read with a Luminomitor within 10 minutes to minimize changes in signal intensity. After reading the chemiluminescence, the cells were washed 1× with wash buffer and 1× with PBS by plate washer. The plate was tapped onto paper towels to remove excess liquid from wells and air-dried at ambient temperature for 5 minutes.
Crystal Violet working solution (60 μL) was added to each well and the cells were incubated at ambient temperature for 30 min. The crystal violet solution was removed, and the wells were rinsed with PBS, then washed 3× with PBS (200 μL) for 5 minutes each.
5% SDS solution (70 μL) was added to each well and the cells were incubated on a shaker for 30 min at ambient temperature. […]

| SMILES | IC50 [1] [µM] | IC50 (Syk kinase) [µM] | IC50 (Axl kinase) [µM] | IC50 ([1]; unit printed MM) [µM] |
| --- | --- | --- | --- | --- |
| COc1ccc(Nc2nc(NC3C4C=CC(C4)C3C(N)=O)c3scc(C)c3n2)cc1 (racemic) [Compound 237, Racemic-(2-exo,3-exo-)-7-methyl-N4-(3-aminocarbonylbicyclo [2.2.1]hept-5-en-2-yl)-N2-[4-methoxyphenyl]-thieno[3,2-d]pyrimidine-2,4-diamine] | < 5 | > 10 | > 10 | – |
| NC(=O)C1C2C=CC(C2)C1Nc1nc(Nc2ccc(OCCN3CCCC3)c(F)c2)nc2[nH]cnc12 (racemic) [Compound 236, Racemic-(2-exo,3-exo-)-N6-(3-aminocarbonylbicyclo [2.2.1]hept-5-en-2-yl)-N2-[3-fluoro-4-[2-(1-pyrrolidinyl)ethoxy]phenyl]-1H-purine-2,6-diamine] | – | < 10 | – | – |
| COc1cc(Nc2nc(NC3C4C=CC(C4)C3C(N)=O)c3scc(C)c3n2)cc(OC)c1OC (racemic) [Compound 238] | < 5 | > 10 | > 10 | – |
| CSc1cccc(Nc2nc(NC3C4C=CC(C4)C3C(=O)N(C)C)c3nc[nH]c3n2)c1 (racemic) [Compound 143] | < 5 | < 10 | – | – |
| CN(C)C(=O)C1C2C=CC(C2)C1Nc1nc(Nc2ccc(Cc3ccncc3)cc2)nc2[nH]cnc12 (racemic) [Compound 146] | < 5 | < 10 | – | – |
| CC(C)Oc1cccc(Nc2nc(NC3C4C=CC(C4)C3C(=O)N(C)C)c3nc[nH]c3n2)c1 (racemic) [Compound 140] | < 5 | > 10 | – | – |
| CONC(=O)Cc1ccc(Nc2nc(NC3C4C=CC(C4)C3C(N)=O)c3cc[nH]c3n2)cc1 (racemic) [Compound 227, Racemic-(2-exo,3-exo)-N4-(3-aminocarbonylbicyclo [2.2.1]hept-5-en-2-yl)-N2-[4-(N-methoxy)-aminocarbonyl-methylphenyl]-1H-pyrrolo[2,3-d]pyrimidine-2,4-diamine] | – | < 10 | > 10 | – |
| CONC(=O)Cc1ccc(Nc2nc(NC3C4C=CC(C4)C3C(N)=O)c3nc[nH]c3n2)cc1 (racemic) [Compound 228, Racemic-(2-exo,3-exo-)-N6-(3-aminocarbonylbicyclo [2.2.1]hept-5-en-2-yl)-N2-[4-(N-methoxy)-aminocarbonyl-inethylphenyl]-1H-purine-2,6-diamine] | – | > 10 | > 10 | – |
| CN(C)C(=O)C1C2C=CC(C2)C1Nc1nc(Nc2cccc(S(N)(=O)=O)c2)nc2[nH]cnc12 (racemic) [Compound 144] | < 5 | < 10 | – | – |
| CN(C)C(=O)C1C2C=CC(C2)C1Nc1nc(Nc2ccc(N3CCCCC3)cc2)nc2[nH]cnc12 (racemic) [Compound 145] | < 5 | < 10 | – | – |
| CNC(=O)COc1cccc(Nc2nc(N[C@H]3[C@@H](C(N)=O)[C@@H]4C=C[C@H]3C4)c3nc[nH]c3n2)c1 [Compound 110] | – | < 10 | – | < 10 |
| Cc1csc2c(NC3C4C=CC(C4)C3C(N)=O)nc(Nc3ccc(OCCN4CCCC4)c(F)c3)nc12 (racemic) [Compound 241, Racemic-(2-exo,3-exo-)-7-methyl-N4-(3-aminocarbonylbicyclo [2.2.1]hept-5-en-2-yl)-N2-[3-fluoro-4-[2-(1-pyrrolidinyl)ethoxy]phenyl]-thieno[3,2-d]pyrimidine-2,4-diamine] | < 5 | – | < 5 | – |

Results, then the molecule that gave them:

| IC50 [1] [µM] | IC50 (Syk kinase) [µM] | IC50 (Axl kinase) [µM] | IC50 ([1]; unit printed MM) [µM] | SMILES |
| --- | --- | --- | --- | --- |
| > 10 | < 10 | – | – | COc1cccc(Nc2nc(NC3C4C=CC(C4)C3C(=O)N(C)C)c3nc[nH]c3n2)c1 (racemic) [Compound 142] |
| < 5 | < 5 | > 10 | – | Cc1csc2c(NC3C4C=CC(C4)C3C(N)=O)nc(Nc3ccc4[nH]ccc4c3)nc12 (racemic) [Compound 239, Racemic-(2-exo,3-aminocarbonylbicyclo [2.2.1]hept-5-en-2-yl)-N2-[1H-indol-5-yl]-thieno[3,2-d]pyrimidine-2,4-diamine] |
| < 5 | < 10 | – | – | Cc1cccc(Nc2nc(NC3C4C=CC(C4)C3C(=O)N(C)C)c3nc[nH]c3n2)c1 (racemic) [Compound 141] |
| – | < 5 | – | – | NC(=O)C1C2C=CC(C2)C1Nc1nc(Nc2ccc(OCCN3CCCC3)c(Cl)c2)nc2[nH]cnc12 (racemic) [Compound 235, Racemic-(2-exo,3-exo-)-N6-(3-aminocarbonylbicyclo [2.2.1]hept-5-en-2-yl)-N2-[3-chloro-4-[2-(1-pyrrolidinyl)ethoxy]phenyl]-1H-purine-2,6-diamine] |
| – | < 5 | > 10 | – | CONC(=O)Cc1cccc(Nc2nc(NC3C4C=CC(C4)C3C(N)=O)c3nc[nH]c3n2)c1 (racemic) [Compound 230, Racemic-(2-exo,3-exo-)-N6-(3-aminocarbonylbicyclo [2.2.1]hept-5-en-2-yl)-N2-[3-(N-methoxy)-aminocarbonyl-methylphenyl]-1H-purine-2,6-diamine] |

Source: patent US7601713B2, “Kinase inhibitors and their uses” (Rigel Pharmaceuticals, Inc., priority 2005, dated 2009)
